# Reference: patent US20040029965A1, “Formulations for reducing or eliminating toxicity of enviromental hormones containing ursodeoxycholic acid” (priority 2000, published 2004)
# What was measured:
# Format in all cases: in vivo
# C57B1/6J mice [1] = test: Changes in body weight of mice after a single subcutaneous injection of TCDD; details: for Weight (body weight): at sacrifice
# Experimental: (§1) Male C57B1/6J mice of 5 weeks old having the average weight of 18-22 g which had been bred in CRJ (Charles River in Japan) were purchased and used in this example as experimental animals. Those mice were acclimated under the constant breeding condition, i.e. the temperature of 24±1° C., the humidity of 60±10% and the light and darkness cycle of 12 hours, for one week and thereafter, utilized in the experiment.
# (§2) The Experimental animals were supplied with Purina powdered feed (purchased from Hae Eun Trade) and supplied with water ad libitum. All the animals were weighed twice a week during experimentation.
# (§3) 2,3,7,8-tetrachlorodibenzo-p-dioxin (TCDD) dissolved in toluene (purity of 95% or more as a result of gas chromatography analysis), manufactured by Chem. Services Inc. in USA, was volatilized with nitrogen to obtain powder. The obtained powder was dissolved in a mixed solvent containing acetone and corn oil with a volume ratio of 1:6. The resulting solution each containing 110, 27.5 and 6.9 μg/kg of TCDD was subcutaneously injected to mice at a volume of 5 ml per body weight. […] The mice were supplied with the feed from 10 days before (pre-administration) to 60 days after administration of TCDD (post-administration).
# (§4) The results are expressed as Mean±Standard Deviation values. For statistical analysis of the body weight, feed and water uptake, biochemical findings, hematological findings and the weight of organ in an acute toxicity test, verification was performed by one way analysis of variance (ANOVA) in case of equal distribution. In case significance was recognized in ANOVA, the Student's t-test was performed in the levels of p<0.05 and p<0.01.
# C57B1/6J mice [2] = test: Feed uptake of mice after a single subcutaneous injection of TCDD; set-up: unit not given here
# Experimental: as §1, §2, §3, §4
# C57B1/6J mice [3] = test: Water uptake of mice after a single subcutaneous injection of TCDD; set-up: unit not given here
# Experimental: as §1, §2, §3, §4
# C57B1/6J mice [4] = test: Optical microscopy of testes (histopathological findings); details: TCDD 27.5 μg/kg alone; FIG. 2
# Experimental: as §3
# Upon completion of the experiment for 60 days, the experimental animals were fasted for 24 hours and anesthetized with ether. Then, they were abdominally incised and blood was gathered from abdominal vena cava. They were sacrificed by the release of blood. Liver, kidneys, testes and epididymides were extracted and all the extracted organs were weighed. Only the testes were separately kept and observed under optical and electron microscopes. For biochemical finding test, serum was separated from blood with a centrifuge and the separated serum was analyzed with an automated blood biochemical analyzer, Dimension (Dupont, USA). Blood was put to another blood gathering bottle and then, analyzed with an automated blood cell analyzer, Celldyn (Abbott, USA).
# The extracted testes were fixed in 10% neutralized formalin buffer for 24 hours and washed with the flowing water. It was subsequently dehydrated with ethanol and cleared with xylene and then, embedded with paraffin. It was sectioned with microtome (microm is HM 440E) to a thickness of 2-3 μm and then, double stained with hematoxylin and eosin to observe under an optical microscope.
# [5] = TCDD 110.0 μg/kg alone, 10 days
# [6] = TCDD 110.0 μg/kg alone, 20 days
# [7] = TCDD 110.0 μg/kg alone, 30 days
smiles,measurement,setting,value
"Clc1cc2c(cc1Cl)Oc1cc(Cl)c(Cl)cc1O2 [TCDD, 2,3,7,8-tetrachlorodibenzo-p-dioxin]",body weight,"C57B1/6J mice [1]; TCDD 6.9 μg/kg alone, 0 day",20.22 ± 0.31
same,body weight,"C57B1/6J mice [1]; TCDD 6.9 μg/kg alone, 12 days",22.27 ± 0.37
same,body weight,"C57B1/6J mice [1]; TCDD 6.9 μg/kg alone, 22 days",23.68 ± 0.36
same,body weight,"C57B1/6J mice [1]; TCDD 6.9 μg/kg alone, 32 days",24.37 ± 0.48
same,body weight,"C57B1/6J mice [1]; TCDD 6.9 μg/kg alone, 39 days",25.35 ± 0.66
same,body weight,"C57B1/6J mice [1]; TCDD 6.9 μg/kg alone, 50 days",27.03 ± 1.35
same,body weight,"C57B1/6J mice [1]; TCDD 6.9 μg/kg alone, 59 days",25.98 ± 1.44
same,Weight (body weight),C57B1/6J mice [1]; TCDD 6.9 μg/kg alone,22.96 ± 3.97 g
same,body weight,"C57B1/6J mice [1]; TCDD 27.5 μg/kg alone, 0 day",19.54 ± 0.22
same,body weight,"C57B1/6J mice [1]; TCDD 27.5 μg/kg alone, 12 days",20.91 ± 0.52
same,body weight,"C57B1/6J mice [1]; TCDD 27.5 μg/kg alone, 22 days",19.82 ± 1.14
same,body weight,"C57B1/6J mice [1]; TCDD 27.5 μg/kg alone, 32 days",18.54 ± 1.16
same,body weight,"C57B1/6J mice [1]; TCDD 27.5 μg/kg alone, 39 days",17.80 ± 1.40
same,body weight,"C57B1/6J mice [1]; TCDD 27.5 μg/kg alone, 50 days",16.74 ± 1.22
same,body weight,"C57B1/6J mice [1]; TCDD 27.5 μg/kg alone, 59 days",15.72 ± 1.17
same,Weight (body weight),C57B1/6J mice [1]; TCDD 27.5 μg/kg alone,16.18 ± 2.51 g
same,body weight,"C57B1/6J mice [1]; TCDD 110.0 μg/kg alone, 0 day",19.36 ± 0.31
same,body weight,"C57B1/6J mice [1]; TCDD 110.0 μg/kg alone, 12 days",19.96 ± 0.32
same,body weight,"C57B1/6J mice [1]; TCDD 110.0 μg/kg alone, 22 days",20.02 ± 0.47
same,body weight,"C57B1/6J mice [1]; TCDD 110.0 μg/kg alone, 32 days",19.84 ± 0.55
same,body weight,"C57B1/6J mice [1]; TCDD 110.0 μg/kg alone, 39 days",17.62 ± 1.14
same,feed uptake,"C57B1/6J mice [2]; TCDD 6.9 μg/kg alone, 10 days",4.76 ± 0.74
same,feed uptake,"C57B1/6J mice [2]; TCDD 6.9 μg/kg alone, 20 days",4.33 ± 0.84
same,feed uptake,"C57B1/6J mice [2]; TCDD 6.9 μg/kg alone, 30 days",4.97 ± 1.00
same,feed uptake,"C57B1/6J mice [2]; TCDD 6.9 μg/kg alone, 40 days",4.97 ± 1.00
same,feed uptake,"C57B1/6J mice [2]; TCDD 6.9 μg/kg alone, 50 days",3.51 ± 0.31
same,feed uptake,"C57B1/6J mice [2]; TCDD 6.9 μg/kg alone, 60 days",3.28 ± 1.56
same,feed uptake,"C57B1/6J mice [2]; TCDD 27.5 μg/kg alone, 10 days",3.86 ± 0.87
same,feed uptake,"C57B1/6J mice [2]; TCDD 27.5 μg/kg alone, 20 days",3.17 ± 1.68
same,feed uptake,"C57B1/6J mice [2]; TCDD 27.5 μg/kg alone, 30 days",2.37 ± 0.37
same,feed uptake,"C57B1/6J mice [2]; TCDD 27.5 μg/kg alone, 40 days",1.90 ± 0.27
same,feed uptake,"C57B1/6J mice [2]; TCDD 27.5 μg/kg alone, 50 days",1.50 ± 0.16
same,feed uptake,"C57B1/6J mice [2]; TCDD 27.5 μg/kg alone, 60 days",1.58 ± 0.32
same,feed uptake,C57B1/6J mice [2]; [5],4.19 ± 0.96
same,feed uptake,C57B1/6J mice [2]; [6],3.21 ± 1.13
same,feed uptake,C57B1/6J mice [2]; [7],3.88 ± 0.96
same,feed uptake,"C57B1/6J mice [2]; TCDD 110.0 μg/kg alone, 40 days",2.23 ± 0.56
same,water uptake,"C57B1/6J mice [3]; TCDD 6.9 μg/kg alone, 10 days",4.23 ± 0.52
same,water uptake,"C57B1/6J mice [3]; TCDD 6.9 μg/kg alone, 20 days",4.08 ± 0.72
same,water uptake,"C57B1/6J mice [3]; TCDD 6.9 μg/kg alone, 30 days",4.70 ± 0.42
same,water uptake,"C57B1/6J mice [3]; TCDD 6.9 μg/kg alone, 40 days",4.30 ± 0.42
same,water uptake,"C57B1/6J mice [3]; TCDD 6.9 μg/kg alone, 50 days",4.72 ± 0.39
same,water uptake,"C57B1/6J mice [3]; TCDD 6.9 μg/kg alone, 60 days",4.88 ± 0.17
same,water uptake,"C57B1/6J mice [3]; TCDD 27.5 μg/kg alone, 10 days",3.38 ± 0.75
same,water uptake,"C57B1/6J mice [3]; TCDD 27.5 μg/kg alone, 20 days",3.58 ± 0.14
same,water uptake,"C57B1/6J mice [3]; TCDD 27.5 μg/kg alone, 30 days",3.10 ± 0.14
same,water uptake,"C57B1/6J mice [3]; TCDD 27.5 μg/kg alone, 40 days",3.10 ± 0.14
same,water uptake,"C57B1/6J mice [3]; TCDD 27.5 μg/kg alone, 50 days",2.89 ± 0.63
same,water uptake,"C57B1/6J mice [3]; TCDD 27.5 μg/kg alone, 60 days",3.19 ± 0.21
same,water uptake,C57B1/6J mice [3]; [5],3.27 ± 0.78
same,water uptake,C57B1/6J mice [3]; [6],4.00 ± 0.66
same,water uptake,C57B1/6J mice [3]; [7],4.70 ± 0.42
same,"seminiferous tubules, optical microphotograph",C57B1/6J mice [4],remarkably reduced spermatogenesis was observed
